Reference: patent publication US9982005B2, “Macrolides and methods of their preparation and use” (President and Fellows of Harvard College, priority 2013, dated 2018)
In brackets after ≈: the same amount, converted by molar mass. Where two headings read alike, the source gives them in different places.

Experiments:
Assay type in all cases: cell-based
[1] = tested on: SA557 S. aureus ermA unknown msrA positive; experiment: broth dilution MIC, S. aureus SA557; conditions: Staphylococcus aureus; SA557 S. aureus ermA unknown msrA positive; read-out: MIC
Description: (§1) We have collected MIC data for a total of 50 novel macrolides that this platform has produced against over 21 unique strains of B. subtilis, E. coli, S. aureus, S. pneumoniae, and H. influenzae, including several multidrug-resistant strains, with a special focus on macrolide resistant mechanisms (vide supra). Azithromycin was included as a control macrolide. CLSI standard procedures for broth dilution MIC determination were used. […] These genotypes can be constitutive or inducible. The finding that C4-epi (unnatural) isomers of the “azaketolide” macrolide class have enhanced activities relative to C4 natural isomers is very exciting.

EC882 E. coli imp = experiment: broth dilution MIC, E. coli EC882
Procedure, shortened: (§2)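 MICs were determined by broth dilution following CLSI standard procedures. Azithromycin served as the control macrolide.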

[2] = tested on: SA101 S. aureus ATCC29213; experiment: broth dilution MIC, S. aureus SA101; conditions: Staphylococcus aureus, ATCC29213, SA101 S. aureus ATCC29213; read-out: MIC
Procedure, shortened: as §2

EC878 E. coli tolC = experiment: broth dilution MIC, E. coli EC878; conditions: Escherichia coli
Procedure, shortened: as §2

[3] = tested on: SA183 S. aureus ermA positive msrA unknown; experiment: broth dilution MIC, S. aureus SA183; conditions: Staphylococcus aureus
Description: as §1

BS1725 B. subtilis ermC = experiment: broth dilution MIC, B. subtilis BS1725; conditions: Bacillus subtilis, BS1725 B. subtilis ermC (+ery)
Procedure, shortened: as §2

HI281 H. influenzae = experiment: broth dilution MIC, H. influenzae HI281; conditions: Haemophilus influenzae
Description: as §1

[4] = tested on: SA506 S. aureus ermA positive msrA unknown; experiment: broth dilution MIC, S. aureus SA506; conditions: Staphylococcus aureus
Description: as §1

EC107 E. coli ATCC25922 = experiment: broth dilution MIC, E. coli EC107; conditions: Escherichia coli, read-out: MIC
Procedure, shortened: as §2

[5] = tested on: Spn1509 S. pneumoniae ermB positive mefA negative; experiment: broth dilution MIC, S. pneumoniae Spn1509; conditions: Streptococcus pneumoniae; Spn1509 S. pneumoniae ermB positive mefA negative; read-out: MIC
Description: as §1

[6] = tested on: Spn1537 S. pneumoniae ermB positive mefA positive; experiment: broth dilution MIC, S. pneumoniae Spn1537; conditions: Streptococcus pneumoniae
Description: as §1

[7] = tested on: Spn160 S. pneumoniae ermB unknown mefA positive; experiment: broth dilution MIC, S. pneumoniae Spn160; conditions: Streptococcus pneumoniae
Description: as §1

[8] = tested on: SA418 S. aureus ermA negative msrA positive; experiment: broth dilution MIC, S. aureus SA418; conditions: Staphylococcus aureus
Description: as §1

[9] = tested on: HI175 H. influenzae ATCC49247; experiment: broth dilution MIC, H. influenzae HI175; conditions: Haemophilus influenzae
Description: as §1

[10] = tested on: Spn1533 S. pneumoniae ermB positive mefA positive; experiment: broth dilution MIC, S. pneumoniae Spn1533; conditions: Streptococcus pneumoniae
Description: as §1

[11] = tested on: BS1723 B. subtilis BS168 WT wild type; experiment: broth dilution MIC, B. subtilis BS1723; conditions: Bacillus subtilis, BS1723 B. subtilis BS168 WT wild type; read-out: MIC
Procedure, shortened: as §2

[12] = tested on: SA1708 S. aureus ermA positive msrA negative; experiment: broth dilution MIC, S. aureus SA1708; conditions: Staphylococcus aureus
Description: as §1

[13] = tested on: Spn 106 S. pneumonia ATCC49619; experiment: broth dilution MIC, S. pneumoniae Spn 106; conditions: Streptococcus pneumoniae; Spn 106 S. pneumonia ATCC49619; read-out: MIC
Description: as §1

[14] = tested on: SA1707 S. aureus ermA negative msrA positive; experiment: broth dilution MIC, S. aureus SA1707; conditions: Staphylococcus aureus
Description: as §1

S. aureus strains = experiment: MIC against S. aureus strains (Table M7); conditions: Staphylococcus aureus
Procedure, shortened: as §2

E. coli strains = experiment: MIC against E. coli strains (Table M7); conditions: Escherichia coli, ATCC25922, E. coli ATCC 25922
Procedure, shortened: as §2

[15] = tested on: Spn1427 S. pneumoniae ermB positive mefA negative; experiment: broth dilution MIC, S. pneumoniae Spn1427; conditions: Streptococcus pneumoniae
Description: as §1

K. pneumoniae strains = experiment: MIC against K. pneumoniae strains (Table M8); conditions: Klebsiella pneumoniae, K. pneumoniae 10031
E. faecalis strains = experiment: MIC against E. faecalis strains (Table M8); conditions: Enterococcus faecalis, E. faecalis 29212
S. pneumoniae strains = experiment: MIC against S. pneumoniae strains (Tables M7, M8); conditions: Streptococcus pneumoniae
Description: CLSI standard procedures for broth dilution MIC determination were used. […] These genotypes can be constitutive or inducible.

H. influenzae strains = experiment: MIC against H. influenzae strains (Table M8); conditions: Haemophilus influenzae
Procedure, shortened: as §2

A. baumannii strains = experiment: MIC against A. baumannii strains (Table M8); conditions: Acinetobacter baumannii, BAA747, A. baumannii BAA747-1
E. coli (MC4100) = experiment: MIC, E. coli MC4100; conditions: Escherichia coli, round 2, read-out: MIC
Description: as §1

[16] = tested on: S. aureus (Newman, clinical isolate); experiment: MIC, S. aureus Newman; conditions: Staphylococcus aureus, S. aureus (Neuman, clinical isolate), round 2
Description: as §1

[17] = ATCC29213, S. aureus ATCC 29213, read-out: MIC S. aureus (ATCC 29213)
[18] = S. aureus 506, read-out: MIC S. aureus (506)
[19] = S. aureus 1708, read-out: MIC S. aureus (1708)
[20] = USA300, S. aureus USA300, read-out: MIC S. aureus (USA300)
[21] = S. pneumoniae 160, read-out: MIC S. pneumonae (160)
[22] = S. pneumoniae 1509, read-out: MIC S. pneumoniae (1509)
[23] = S. pneumoniae 1533, read-out: MIC S. pneumoniae (1533)
[24] = S. pneumoniae 1537, read-out: MIC S. pneumoniae (1537)
[25] = read-out: MIC S. pneumoniae (49619)
[26] = H. influenzae 49247, read-out: MIC H. influenzae (49247)
[27] = H. influenzae 49766, read-out: MIC H. influenzae (49766)

Structure (SMILES)	MIC [1]	MIC [2]	MIC (EC878 E. coli tolC)	MIC [3]	MIC (BS1725 B. subtilis ermC)	MIC (HI281 H. influenzae)	MIC [4]	MIC (EC107 E. coli ATCC25922)	MIC [5]	MIC [6]	MIC [8]	MIC [9]	MIC [11]	MIC [12]	MIC [13]	MIC [14]	MIC (S. aureus strains; [17])	MIC (S. aureus strains; [18])	MIC (S. aureus strains; [19])	MIC (S. aureus strains; [20])	further results
CC[C@H]1OC(=O)C(C)(F)C(=O)[C@@H](C)[C@@H](O[C@@H]2OC(C)CC(N(C)C)C2O)[C@](C)(OC)C[C@@H](C)CN(C)[C@H](C)[C@H]2N(CCCCn3cc(-c4nccs4)nn3)C(=O)O[C@]12C (stereo partly shown) [FSM-20705]	8 µg/mL (≈ 9.39 µM)	8 µg/mL (≈ 9.39 µM)	2 µg/mL (≈ 2.35 µM)	> 32 µg/mL	> 32 µg/mL	> 32 µg/mL	> 32 µg/mL	> 32 µg/mL	4 to 16 µg/mL (≈ 4.69 to 18.8 µM)	> 32 µg/mL	16 µg/mL (≈ 18.8 µM)	16 to 32 µg/mL (≈ 18.8 to 37.6 µM)	8 µg/mL (≈ 9.39 µM)	16 µg/mL (≈ 18.8 µM)	0.125 to 0.25 µg/mL (≈ 0.147 to 0.293 µM)	32 µg/mL (≈ 37.6 µM)					MIC (EC882 E. coli imp): 0.25 µg/mL (≈ 0.293 µM); MIC ([7]; Spn160 S. pneumoniae ermB unknown mefA positive, read-out: MIC): 0.5 to 1 µg/mL (≈ 0.587 to 1.17 µM); MIC [10]: > 32 µg/mL
CC[C@H]1OC(=O)[C@H](C)C(=O)[C@H](C)[C@@H](O[C@@H]2OC(C)CC(N(C)C)C2O)[C@](C)(OC)C[C@@H](C)CN[C@H](C)[C@H]2N(CCCCn3cc(-c4ccccn4)nn3)C(=O)O[C@]12C (stereo partly shown) [FSM-20706]	2 µg/mL (≈ 2.46 µM)	2 µg/mL (≈ 2.46 µM)	0.5 µg/mL (≈ 0.614 µM)	> 32 µg/mL	16 µg/mL (≈ 19.7 µM)	4 µg/mL (≈ 4.91 µM)	> 32 µg/mL	8 µg/mL (≈ 9.83 µM)	0.5 to 2 µg/mL (≈ 0.614 to 2.46 µM)	> 32 µg/mL	2 µg/mL (≈ 2.46 µM)	0.5 to 2 µg/mL (≈ 0.614 to 2.46 µM)	1 µg/mL (≈ 1.23 µM)	4 µg/mL (≈ 4.91 µM)	0.0156 to 0.0312 µg/mL (≈ 0.0192 to 0.0383 µM)	4 µg/mL (≈ 4.91 µM)	2 µg/mL (≈ 2.46 µM)	> 32 µg/mL	1 µg/mL (≈ 1.23 µM)	2 µg/mL (≈ 2.46 µM)	MIC (E. coli strains): 8 µg/mL (≈ 9.83 µM); MIC [15]: > 32 µg/mL; MIC (K. pneumoniae strains): 4 µg/mL (≈ 4.91 µM); MIC (EC882 E. coli imp; Escherichia coli): 0.0625 µg/mL (≈ 0.0768 µM); MIC (E. faecalis strains): 0.25 µg/mL (≈ 0.307 µM); MIC (S. pneumoniae strains; [21]): 0.125 µg/mL (≈ 0.154 µM); MIC (S. pneumoniae strains; [22]): 4 µg/mL (≈ 4.91 µM); MIC (S. pneumoniae strains; [23]): > 32 µg/mL; MIC (S. pneumoniae strains; [24]): > 32 µg/mL; MIC (S. pneumoniae strains; [25]): ≤ 0.0625 µg/mL; MIC [7]: 0.0625 to 0.125 µg/mL (≈ 0.0768 to 0.154 µM); MIC (H. influenzae strains; [26]): 0.5 µg/mL (≈ 0.614 µM); MIC (H. influenzae strains; [27]): 2 µg/mL (≈ 2.46 µM); MIC (A. baumannii strains): 32 µg/mL (≈ 39.3 µM)
CC[C@H]1OC(=O)[C@H](C)C(=O)[C@H](C)[C@@H](O[C@@H]2OC(C)CC(N(C)C)C2O)[C@](C)(OC)C[C@@H](C)CN[C@H](C)[C@H]2N(CCCCn3cc(-c4cccc(N)c4)nn3)C(=O)O[C@]12C (stereo partly shown) [FSM-20707]	0.5 to 1 µg/mL (≈ 0.604 to 1.21 µM)		0.5 µg/mL (≈ 0.604 µM)	> 32 µg/mL	8 µg/mL (≈ 9.66 µM)	4 µg/mL (≈ 4.83 µM)	> 32 µg/mL	8 µg/mL (≈ 9.66 µM)	0.25 to 2 µg/mL (≈ 0.302 to 2.42 µM)	32 µg/mL (≈ 38.6 µM)	1 µg/mL (≈ 1.21 µM)	1 to 2 µg/mL (≈ 1.21 to 2.42 µM)	0.5 µg/mL (≈ 0.604 µM)	1 to 2 µg/mL (≈ 1.21 to 2.42 µM)	0.0156 to 0.0312 µg/mL (≈ 0.0188 to 0.0377 µM)	0.5 to 2 µg/mL (≈ 0.604 to 2.42 µM)	1 µg/mL (≈ 1.21 µM)	> 32 µg/mL	1 µg/mL (≈ 1.21 µM)	4 µg/mL (≈ 4.83 µM)	MIC (S. aureus strains; S. aureus 183, read-out: MIC S. aureus (183)): > 32 µg/mL; MIC (E. coli strains): 4 µg/mL (≈ 4.83 µM); MIC (K. pneumoniae strains): 2 µg/mL (≈ 2.42 µM); MIC (EC882 E. coli imp; Escherichia coli): 0.0625 µg/mL (≈ 0.0755 µM); MIC (E. coli (MC4100)): 4 µg/mL (≈ 4.83 µM); MIC (E. faecalis strains): 0.25 µg/mL (≈ 0.302 µM); MIC (S. pneumoniae strains; [21]): 0.125 µg/mL (≈ 0.151 µM); MIC (S. pneumoniae strains; [22]): 1 µg/mL (≈ 1.21 µM); MIC (S. pneumoniae strains; [23]): > 32 µg/mL; MIC (S. pneumoniae strains; [24]): > 32 µg/mL; MIC (S. pneumoniae strains; [25]): ≤ 0.0625 µg/mL; MIC [7]: 0.0625 to 0.125 µg/mL (≈ 0.0755 to 0.151 µM); MIC (H. influenzae strains; [26]): 0.5 µg/mL (≈ 0.604 µM); MIC (H. influenzae strains; [27]): 2 µg/mL (≈ 2.42 µM); MIC (A. baumannii strains): 8 µg/mL (≈ 9.66 µM); MIC [16]: 0.5 µg/mL (≈ 0.604 µM)
